Values joined by “and” are separate entries in the source; they are usually repeats but may differ in a detail not shown here. Equal values may be shown once. Where a name gives a salt, the structure may show the parent alone.
Tests used:
Test in all cases: MIC, NCCLS broth microdilution
Type in all cases: cell-based
Conditions in all cases: for MIC of antibiotic: antibiotic alone, no inhibitor; for MIC of antibiotic at fixed inhibitor concentration (4 mg/L): MIC of antibiotic compound 1 with the labelled bridged monobactam of formula II and clavulanate, 4 mg/L each
[1] = system: Pseudomonas aeruginosa 1973E
In short: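 Compounds were serially diluted per NCCLS M7-A5 (final DMSO no more than 1%) and incubated with bacteria overnight at 30° C. or 37° C. Visible growth was then judged by eye. For combinations, partner compounds sat in every well at a constant 4 μg/mL each.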

Enterobacter cloacae P99 = system: Enterobacter cloacae P99
[2] = system: Klebsiella pneumoniae CF104
Serratia marcescens S6 = system: Serratia marcescens S6
[3] = system: Stenotrophomonas malthophilia 1AC736
Acinetobacter sp. J2 = system: Acinetobacter sp. J2
[4] = system: Pseudomonas aeruginosa MK1184
[5] = Stenotrophomonas maltophilia 1AC736
[6] = Stenotrophomonas maltophilia 1AC736, with 102 and clavulanate
[7] = Acinetobacter baumannii J2, with 102 and clavulanate
[8] = Stenotrophomonas malthophilia 1AC736

SMILES | MIC of antibiotic [1] | MIC of antibiotic (Enterobacter cloacae P99) | MIC of antibiotic [2] | MIC of antibiotic (Serratia marcescens S6) | MIC of antibiotic [3, 5] | MIC of antibiotic (Acinetobacter sp. J2; Acinetobacter baumannii J2) | MIC of antibiotic [4] | MIC of antibiotic at fixed inhibitor concentration (4 mg/L) [1] | MIC of antibiotic at fixed inhibitor concentration (4 mg/L) (Enterobacter cloacae P99) | MIC of antibiotic at fixed inhibitor concentration (4 mg/L) [2] | MIC of antibiotic at fixed inhibitor concentration (4 mg/L) (Serratia marcescens S6) | MIC of antibiotic at fixed inhibitor concentration (4 mg/L) [3, 8] | MIC of antibiotic at fixed inhibitor concentration (4 mg/L) (Acinetobacter sp. J2; Acinetobacter sp. J2) | MIC of antibiotic at fixed inhibitor concentration (4 mg/L) [4] | also measured
NC(=O)c1c[n+](CC(=O)N2CC[C@@H]3[C@H]2C(=O)N3S(=O)(=O)[O-])ccc1N [Compound 126, (1S,5R)-2-[2-(4-amino-3-carbamoylpyridinium)acetyl]-7-oxo-2,6-diazabicyclo[3.2.0]heptane-6-sulfonate, inner salt] |  |  |  |  |  |  |  | 8 µg/mL | 32 µg/mL | >32 µg/mL | 0.125 µg/mL | 0.125 µg/mL | 2 µg/mL | 16 µg/mL | 
NC(=O)c1cc[n+](CC(=O)N2CC[C@@H]3[C@H]2C(=O)N3S(=O)(=O)[O-])cc1C(N)=O [Compound 110, (1S,5R)-2-[2-(3,4-dicarbamoylpyridinium)acetyl]-7-oxo-2,6-diazabicyclo[3.2.0]heptane-6-sulfonate, inner salt] |  |  |  |  |  |  |  | 4 µg/mL | >32 µg/mL | 0.125 µg/mL | 0.25 µg/mL | 0.125 µg/mL | 2 µg/mL | 32 µg/mL | 
CN(C)c1cc[n+](CC(=O)N2CC[C@@H]3[C@H]2C(=O)N3S(=O)(=O)[O-])cc1 [Compound 112, (1S,5R)-2-{2-[4-(dimethylamino)pyridinium]acetyl}-7-oxo-2,6-diazabicyclo[3.2.0]heptane-6-sulfonate, inner salt] |  |  |  |  |  |  |  | 8 µg/mL | >32 µg/mL | <=0.06 mg/L | 0.5 µg/mL | 0.125 µg/mL | 16 µg/mL | >32 µg/mL | 
O=C(C[n+]1ccc2c(c1)CCCC2)N1CC[C@@H]2[C@H]1C(=O)N2S(=O)(=O)[O-] [Compound 106, (1S,5R)-7-oxo-2-(2-(2-5,6,7,8-tetrahydroisoquinolinium)acetyl)-2,6-diazabicyclo[3.2.0]heptane-6-sulfonate, inner salt] |  |  |  |  |  |  |  | 4 µg/mL | >32 µg/mL | 0.25 µg/mL | 0.25 µg/mL | 0.125 µg/mL | >32 µg/mL | 32 µg/mL | 

The next lines start with results.

MIC of antibiotic [1] | MIC of antibiotic (Enterobacter cloacae P99) | MIC of antibiotic [2] | MIC of antibiotic (Serratia marcescens S6) | MIC of antibiotic [3, 5] | MIC of antibiotic (Acinetobacter sp. J2; Acinetobacter baumannii J2) | MIC of antibiotic [4] | MIC of antibiotic at fixed inhibitor concentration (4 mg/L) [1] | MIC of antibiotic at fixed inhibitor concentration (4 mg/L) (Enterobacter cloacae P99) | MIC of antibiotic at fixed inhibitor concentration (4 mg/L) [2] | MIC of antibiotic at fixed inhibitor concentration (4 mg/L) (Serratia marcescens S6) | MIC of antibiotic at fixed inhibitor concentration (4 mg/L) [3, 8] | MIC of antibiotic at fixed inhibitor concentration (4 mg/L) (Acinetobacter sp. J2; Acinetobacter sp. J2) | MIC of antibiotic at fixed inhibitor concentration (4 mg/L) [4] | SMILES | also measured
16 µg/mL | 32 µg/mL | >32 µg/mL | 0.5 µg/mL | 0.5 µg/mL | >32 µg/mL | 4 µg/mL |  |  |  |  |  |  |  | CC1(C)C(NC(=O)C(=NOCc2cc(=O)c(O)cn2O)c2nsc(N)n2)C(=O)N1OS(=O)(=O)O (stereo not drawn) [Compound 32] | MIC of antibiotic at fixed inhibitor concentration of 4 mg/L ([1]; with 102 and clavulanate): 8 µg/mL; MIC of antibiotic at fixed inhibitor concentration of 4 mg/L ([1]; with 324 and clavulanate): 8 µg/mL; MIC of antibiotic at fixed inhibitor concentration of 4 mg/L (Enterobacter cloacae P99; with 102 and clavulanate): 8 µg/mL; MIC of antibiotic at fixed inhibitor concentration of 4 mg/L (Enterobacter cloacae P99; with 324 and clavulanate): 4 µg/mL; MIC of antibiotic at fixed inhibitor concentration of 4 mg/L ([2]; with 102 and clavulanate): 1 µg/mL; MIC of antibiotic at fixed inhibitor concentration of 4 mg/L ([2]; with 324 and clavulanate): 2 µg/mL; MIC of antibiotic at fixed inhibitor concentration of 4 mg/L (Serratia marcescens S6; with 102 and clavulanate): 0.25 µg/mL; MIC of antibiotic at fixed inhibitor concentration of 4 mg/L (Serratia marcescens S6; with 324 and clavulanate): 0.25 µg/mL; MIC of antibiotic at fixed inhibitor concentration of 4 mg/L [3, 6]: 0.5 µg/mL; MIC of antibiotic at fixed inhibitor concentration of 4 mg/L ([3]; Stenotrophomonas maltophilia 1AC736, with 324 and clavulanate): 0.5 µg/mL; MIC of antibiotic at fixed inhibitor concentration of 4 mg/L (Acinetobacter sp. J2; [7]): 4 µg/mL; MIC of antibiotic at fixed inhibitor concentration of 4 mg/L (Acinetobacter sp. J2; Acinetobacter baumannii J2, with 324 and clavulanate): 8 µg/mL; MIC of antibiotic at fixed inhibitor concentration of 4 mg/L ([4]; with 102 and clavulanate): 4 µg/mL; MIC of antibiotic at fixed inhibitor concentration of 4 mg/L ([4]; with 324 and clavulanate): 4 µg/mL
4 µg/mL | 2 µg/mL | 4 µg/mL | 0.13 µg/mL and 0.125 µg/mL | 4 µg/mL | 32 µg/mL | 32 µg/mL |  |  |  |  |  |  |  | CO/N=C(\C(=O)N[C@@H]1C(=O)N2C(C(=O)[O-])=C(C[N+]3(C)CCCC3)CS[C@H]12)c1csc(N)n1 [Cefepime] | MIC of antibiotic [3, 8]: 4 µg/mL; MIC of antibiotic (Acinetobacter sp. J2; Acinetobacter sp. J2): 32 µg/mL
 |  |  |  |  |  |  | 4 µg/mL | 32 µg/mL | 2 µg/mL | 0.5 µg/mL | 0.25 µg/mL | >32 µg/mL | >32 µg/mL | O=C(Nc1ccc(O)c(O)c1)N1CC[C@@H]2[C@H]1C(=O)N2S(=O)(=O)[O-].[Na+] [Compound 306, Sodium(1S,5R)-2-[N-(3,4-dihydroxyphenyl)carbamoyl]-7-oxo-2,6-diazabicyclo[3.2.0]heptane-6-sulfonate] | 
>32 µg/mL | >32 µg/mL | >32 µg/mL | >32 µg/mL | >32 µg/mL | >32 µg/mL | >32 µg/mL |  |  |  |  |  |  |  | CC1C(NC(=O)C(=NOCc2cc(=O)c(O)cn2O)c2noc(N)n2)C(=O)N1S(=O)(=O)O (stereo not drawn) [Compound 16] | MIC of antibiotic at fixed inhibitor concentration of 4 mg/L ([1]; with 102 and clavulanate): 16 µg/mL; MIC of antibiotic at fixed inhibitor concentration of 4 mg/L (Enterobacter cloacae P99; with 102 and clavulanate): >32 µg/mL; MIC of antibiotic at fixed inhibitor concentration of 4 mg/L ([2]; with 102 and clavulanate): 32 µg/mL; MIC of antibiotic at fixed inhibitor concentration of 4 mg/L (Serratia marcescens S6; with 102 and clavulanate): >32 µg/mL; MIC of antibiotic at fixed inhibitor concentration of 4 mg/L [3, 6]: 2 µg/mL; MIC of antibiotic at fixed inhibitor concentration of 4 mg/L (Acinetobacter sp. J2; [7]): 16 µg/mL; MIC of antibiotic at fixed inhibitor concentration of 4 mg/L ([4]; with 102 and clavulanate): 16 µg/mL
 |  |  |  |  |  |  | 8 µg/mL | 32 µg/mL | 2 µg/mL | 0.25 µg/mL | 0.125 µg/mL | >32 µg/mL | >32 µg/mL | CC(=O)Nc1cccc(NC(=O)N2CC[C@@H]3[C@H]2C(=O)N3S(=O)(=O)[O-])c1.[Na+] [Compound 307, Sodium(1S,5R)-2-{N-[3-(acetylamino)phenyl]carbamoyl}-7-oxo-2,6-diazabicyclo[3.2.0]heptane-6-sulfonate] | 
 |  |  |  |  |  |  | 4 µg/mL | >32 µg/mL | 0.125 µg/mL | 0.25 µg/mL | 0.125 µg/mL | >32 µg/mL | 32 µg/mL | CCOC(=O)Cc1ccc[n+](CC(=O)N2CC[C@@H]3[C@H]2C(=O)N3S(=O)(=O)[O-])c1 [Compound 119, (1S,5R)-2-(2-{3-[(ethoxycarbonyl)methyl]pyridinium}acetyl)-7-oxo-2,6-diazabicyclo[3.2.0]heptane-6-sulfonate, inner salt] | 
